Measured values published in patent publication US20250277030A1, “ANTI-NAPI2B ANTIBODIES AND METHODS OF USE” (Zymeworks BC Inc., priority 2022, published 2025).

Tests used:
[1] = system: cynomolgus NaPi2b; test: Flow cytometry binding to HEK293-6e cells transfected with cynomolgus NaPi2b (Example 5); settings: transfected HEK293-6e cells, 18-24 hours at 4° C.
Description: The binding cross-reactivity of humanized antibody variant v29456 to human, cynomolgus and mouse NaPi2b was assessed by flow cytometry using HEK293-6e transfected cells.
Briefly, HEK293-6e cells were transfected for ˜24 hours to transiently express human NaPi2b, cynomolgus or mouse NaPi2b, at 1 μg of DNA per 1 million cells. Following transfection, 50,000 cells per well were seeded in V-bottom 96-well plates and incubated with 200 nM of primary antibody for 18-24 hours at 4° C. to prevent internalization. Post-incubation, cells were washed and stained with anti-Human IgG Fc AF647 conjugate (Jackson Immuno Research Labs, West Grove, PA, Cat. No. 109-605-098, Lot. No. 124868) at 4° C. for 1 hour. Following staining and washing, fluorescence was detected by flow cytometry on BD LSRFortessa™ Cell Analyzer (BD Biosciences, Franklin Lake, NJ) with 10,000 minimum events collected per well. The AF647/APC-A GeoMean (fluorescence signal geometric mean, proportional to anti-Human AF647 binding) was calculated for the live singlet cell population for each primary antibody using FlowJo™ v8 software (BD Biosciences, Franklin Lake, NJ). The Bmax and Kd of each primary antibody were calculated using GraphPad Prism Version 9 (GraphPad Software, San Diego, CA)

[2] = biological target: T1, human NaPi2b (Homo sapiens, UniProt O95436); test: Competition binding (epitope binning) by flow cytometry on HEK293-6e cells expressing human NaPi2b; settings: unlabeled competitor antibody 100 μg/mL, GFP- population
T1 construct: host or cells: HEK293-6e
T1 sequence (O95436 1-690): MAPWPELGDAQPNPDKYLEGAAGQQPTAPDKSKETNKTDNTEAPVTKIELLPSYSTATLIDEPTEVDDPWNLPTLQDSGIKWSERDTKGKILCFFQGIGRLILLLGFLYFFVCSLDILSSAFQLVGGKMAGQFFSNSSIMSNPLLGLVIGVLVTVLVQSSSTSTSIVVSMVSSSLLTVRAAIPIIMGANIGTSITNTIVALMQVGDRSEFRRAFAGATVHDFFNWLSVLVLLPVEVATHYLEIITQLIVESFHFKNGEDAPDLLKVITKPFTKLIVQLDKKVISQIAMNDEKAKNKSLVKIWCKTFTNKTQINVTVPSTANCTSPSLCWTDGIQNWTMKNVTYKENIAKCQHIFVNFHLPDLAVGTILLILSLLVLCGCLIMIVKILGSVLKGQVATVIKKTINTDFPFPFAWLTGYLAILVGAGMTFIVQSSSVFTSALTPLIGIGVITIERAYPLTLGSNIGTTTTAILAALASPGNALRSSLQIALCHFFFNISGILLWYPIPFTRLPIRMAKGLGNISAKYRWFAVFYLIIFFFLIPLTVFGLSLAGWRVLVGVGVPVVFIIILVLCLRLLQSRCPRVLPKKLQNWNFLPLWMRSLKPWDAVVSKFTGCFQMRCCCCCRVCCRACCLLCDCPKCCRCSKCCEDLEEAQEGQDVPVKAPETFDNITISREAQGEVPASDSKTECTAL
Description: Binding was assessed by flow cytometry using HEK293-6e cells as described below.
HEK293-6e cells were transfected for ˜24 hours to transiently express human NaPi2b (1 μg of pTT5-NaPi2b per 1 million cells) or transfected with GFP (ATUM, Menlo Park, CA; pD2610-v23, also 1 μg of DNA per 1 million cells). Following transfection, human NaPi2b-expressing HEK296-6e cells and transfected GFP-expressing HEK296-6e cells were mixed at 4:1 ratio. Each well of a V-bottom 96-well plate was seeded with 100,000 cells of the mixture and incubated with 100 μg/mL of unlabeled competitor anti-NaPi2b antibody for an hour on ice. Post incubation, cells were washed and stained with 1 μg/mL of AF647-conjugated anti-NaPi2b detection antibodies for an hour on ice. Following staining and washing, fluorescence was detected by flow cytometry on a BD LSRFortessa™ Cell Analyzer (BD Biosciences, Franklin Lake, NJ) with 10,000 minimum events collected per well. The AF647/APC-A GeoMean (fluorescence signal geometric mean, proportional to anti-Human AF647 binding) was calculated for the FITC/GFP negative live cell population and using FlowJo™ Version 10.8.1 (BD Biosciences, Franklin Lake, NJ). Percentage inhibition was calculated using the following formula: […]

[3] = system: OVCAR-3 cells; test: In vitro cytotoxicity, 2D monolayer, CellTiter-Glo, OVCAR-3; assay type: cell-based, human; settings: OVCAR-3, 4 days; IC = Incomplete Curve
Description: (§1) The cytotoxicity as measured by cell growth inhibition of the humanized variant v29456 (H1L2) conjugated to various drug-linkers were assessed in a panel of NaPi2b-expressing cell lines as described below. Cell lines used were OVCAR-3 (ovarian carcinoma), IGROV-1 (ovarian carcinoma), and HCC-78 (lung carcinoma). ADCs with antibody palivizumab (anti-RSV) (v22277) were used as non-targeted controls.
(§2) OVCAR-3 were cultured in RPMI 1640 Medium, ATCC modification (Thermo Fisher Scientific, Waltham, MA) supplemented with 20% fetal bovine serum (FBS) (Thermo Fisher Scientific, Waltham, MA) and 0.01 μg/mL human insulin (Sigma-Aldrich, Oakville, ON). […] After incubation, CellTiter-Glo® reagent (Promega Corporation, Madison, WI) was added in all wells and luminescence corresponding to ATP present in each well was measured using a Synergy™H1 plate reader (BioTek Instruments, Winooski, VT). Percent cytotoxicity values were calculated by the following formula: (1−(Luminescence of Treated Cells/Average Luminescence of Untreated Cells))×100, and plotted against test article concentration using GraphPad Prism 9 software (GraphPad Software, San Diego, CA). EC50 values were calculated based on a non-linear regression log(agonist) versus response, variable slope (four parameters) by GraphPad Prism 9.

[4] = system: IGROV-1 cells; test: In vitro cytotoxicity, 2D monolayer, CellTiter-Glo, IGROV-1; assay type: cell-based, human; settings: IGROV-1, 4 days
Description: as §1, §2

[5] = system: HCC-78 cells; test: In vitro cytotoxicity, 2D monolayer, CellTiter-Glo, HCC-78; assay type: cell-based, human; settings: HCC-78, 4 days
Description: as §1, §2

Chain of cynomolgus NaPi2b (as listed by the source): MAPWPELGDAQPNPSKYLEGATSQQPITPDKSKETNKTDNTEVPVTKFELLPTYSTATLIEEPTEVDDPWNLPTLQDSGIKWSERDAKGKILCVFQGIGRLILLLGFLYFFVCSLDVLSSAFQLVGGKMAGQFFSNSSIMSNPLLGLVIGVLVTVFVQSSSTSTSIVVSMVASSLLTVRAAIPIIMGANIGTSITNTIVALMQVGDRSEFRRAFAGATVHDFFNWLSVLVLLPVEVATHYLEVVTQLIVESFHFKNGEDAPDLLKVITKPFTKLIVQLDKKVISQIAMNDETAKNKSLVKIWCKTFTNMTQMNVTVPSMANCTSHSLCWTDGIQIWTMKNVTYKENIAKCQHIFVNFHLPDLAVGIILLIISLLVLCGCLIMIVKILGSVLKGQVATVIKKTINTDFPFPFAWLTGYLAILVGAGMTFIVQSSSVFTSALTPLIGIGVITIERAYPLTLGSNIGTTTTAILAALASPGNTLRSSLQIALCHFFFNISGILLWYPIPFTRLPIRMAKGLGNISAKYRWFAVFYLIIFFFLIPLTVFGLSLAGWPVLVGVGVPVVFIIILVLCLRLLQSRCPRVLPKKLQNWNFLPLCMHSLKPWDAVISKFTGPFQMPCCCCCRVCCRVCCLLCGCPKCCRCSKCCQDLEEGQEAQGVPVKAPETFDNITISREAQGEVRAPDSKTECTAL

Substance	Bmax (APC-A GeoMean), Cyno NaPi2b [1]	EC50 [3] [nM]	EC50 [4] [nM]	EC50 [5] [nM]	also measured
v18992: anti-NaPi2b reference humanized antibody MX35 [reference compound]	2,365 APC-A GeoMean				
v16955: Palivizumab (anti-RSV), negative control antibody in the competition binding					% Inhibition vs. irrelevant mAb, labeled detection antibody v16955 (negative control) ([2]; labeled detection antibody v16955 1 μg/mL): 0%; % Inhibition vs. irrelevant mAb, labeled detection antibody v18992 (MX35) ([2]; labeled detection antibody v18992 1 μg/mL): 0%; % Inhibition vs. irrelevant mAb, labeled detection antibody v18993 (lifastuzumab) ([2]; labeled detection antibody v18993 1 μg/mL): 0%; % Inhibition vs. irrelevant mAb, labeled detection antibody v23855 ([2]; labeled detection antibody v23855 1 μg/mL): 0%
v18993: anti-NaPi2b reference humanized antibody lifastuzumab [reference compound]	1,557 APC-A GeoMean				
v22277-DL3: non-targeted control ADC of palivizumab v22277 with MC-VC-PABC-MMAE (DL3), DAR 4		9.4	7.02	11.4	
v22277-DL1: non-targeted control ADC of palivizumab v22277 with MC-GGFG-AM-DXd1 (DL1), DAR 8		> 50	> 50	> 50	
